According to ChEMBL document CHEMBL5385851, “Natural quinazolinones: From a treasure house to promising anticancer leads” (Eur J Med Chem, 2023):
Values after ≈ are worked out from the molar mass of the structure shown. Blank lines part the entries; values can stand above or below the compound they belong to.

How the values were obtained:
MCF7 [1] = assay: Antiproliferative activity against human MCF7 cells assessed as reduction in cell viability incubated for 48 hrs by MTT assay; format: functional, cell-based; details: MCF7, 48 h
A549 [2] = assay: Antiproliferative activity against human A549 cells assessed as cell growth inhibition; format: functional, cell-based
[3] = Antiproliferative activity against human U373 cells assessed as inhibition of cell growth measured after 72 hrs by CTG assay; format: functional, cell-based; details: U373 MG
SK-MEL-28 [4] = assay: Cytotoxicity against human SK-MEL-28 cells assessed as inhibition of cell growth incubated for 72 hrs by MTT assay; format: functional, cell-based; details: SK-MEL-28, 72 h
HepG2 [5] = assay: Antiproliferative activity against human HepG2 cells assessed as reduction in cell viability incubated for 72 hrs by CCK-8 assay; format: functional, cell-based; details: HepG2, 72 h
P388 = assay: Cytotoxicity against mouse P388 cells assessed as reduction in cell growth; format: functional; details: read-out: ED50 (the source's name)
HCT-116 [6] = assay: Antiproliferative activity against human HCT-116 cells assessed as reduction in cell growth incubated for 24 hrs by MTT assay; format: functional, cell-based; details: HCT-116, 24 h
MCF7 [7] = assay: Cytotoxicity against human MCF7 assessed as reduction in cell viability incubated for 24 hrs by MTT assay; format: functional, cell-based; details: MCF7, 24 h
SK-MEL-28 [8] = assay: Cytotoxicity against human SK-MEL-28 cells assessed as reduction in cell growth; format: functional, cell-based
A549 [9] = assay: Cytotoxicity against human A549 cells assessed as inhibition of cell growth measured after 72 hrs by MTT assay; format: functional, cell-based; details: A549, 72 h
Hs 683 = assay: Cytotoxicity against human Hs 683 cells assessed as reduction in cell viability by MTT assay; format: functional, cell-based
[10] = Antiproliferative activity against human U373 cells assessed as reduction in cell viability; format: functional, cell-based; details: U373 MG
KB = assay: Cytotoxicity against human KB cells assessed as cell growth inhibition; format: functional, cell-based
[11] = molecular target: Indoleamine 2,3-dioxygenase 1 (Homo sapiens, UniProt P14902); assay: Inhibition of IDO1 in human HeLa cells; format: cell-based
Sequence of Indoleamine 2,3-dioxygenase 1 (P14902 whole entry): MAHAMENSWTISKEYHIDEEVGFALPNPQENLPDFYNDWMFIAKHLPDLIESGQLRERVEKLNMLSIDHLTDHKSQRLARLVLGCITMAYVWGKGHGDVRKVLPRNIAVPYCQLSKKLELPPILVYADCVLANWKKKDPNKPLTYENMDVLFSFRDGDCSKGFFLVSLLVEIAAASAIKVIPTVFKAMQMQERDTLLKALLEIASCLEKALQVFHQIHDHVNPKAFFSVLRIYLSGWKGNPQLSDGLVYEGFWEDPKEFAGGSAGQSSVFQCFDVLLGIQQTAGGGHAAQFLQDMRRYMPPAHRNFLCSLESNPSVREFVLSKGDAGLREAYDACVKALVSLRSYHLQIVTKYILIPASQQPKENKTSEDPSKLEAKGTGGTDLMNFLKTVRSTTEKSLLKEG

[12] = molecular target: Tryptophan 2,3-dioxygenase (Homo sapiens, UniProt P48775); assay: Inhibition of TDO (unknown origin) expressed in HEK293 cells; format: cell-based
Sequence of Tryptophan 2,3-dioxygenase (P48775 whole entry): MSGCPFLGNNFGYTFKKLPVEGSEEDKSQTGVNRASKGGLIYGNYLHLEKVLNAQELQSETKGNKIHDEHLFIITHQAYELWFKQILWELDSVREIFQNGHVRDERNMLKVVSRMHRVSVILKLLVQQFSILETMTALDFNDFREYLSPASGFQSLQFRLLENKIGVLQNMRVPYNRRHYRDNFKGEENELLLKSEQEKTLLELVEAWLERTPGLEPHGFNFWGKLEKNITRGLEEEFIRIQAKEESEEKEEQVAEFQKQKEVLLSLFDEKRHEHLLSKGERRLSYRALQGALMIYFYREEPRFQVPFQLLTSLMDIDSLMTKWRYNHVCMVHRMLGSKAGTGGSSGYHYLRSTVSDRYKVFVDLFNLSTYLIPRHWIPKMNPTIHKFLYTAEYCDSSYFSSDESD

K562 [13] = assay: Cytotoxicity against human K562 cells assessed as cell growth inhibition after 48 hrs by MTT assay; format: functional, cell-based; details: K562, 48 h
A549 [14] = assay: Antiproliferative activity against human A549 cells assessed as reduction in cell viability incubated for 48 hrs by MTT assay; format: functional, cell-based; details: A549, 48 h
HCT-116 [15] = assay: Cytotoxicity against human HCT-116 cells assessed as reduction in cell growth incubated for 48 hrs by MTT assay; format: functional, cell-based; details: HCT-116, 48 h
A-375 [16] = assay: Cytotoxicity against human A-375 cells assessed as reduction in cell growth incubated for 48 hrs by MTT assay; format: functional, cell-based; details: A-375, 48 h
A549 [17] = assay: Antiproliferative activity against human A549 cells assessed as cell growth inhibition measured after 72 hrs by MTT assay; format: functional, cell-based; details: A549, 72 h
HepG2 [18] = assay: Cytotoxicity against human HepG2 cells assessed as cell growth inhibition measured after 48 hrs by MTT assay; format: functional, cell-based; details: HepG2, 48 h
SW 1116 = assay: Antiproliferative activity against human […] cells assessed as reduction in cell viability incubated for 24 hrs by MTT assay; format: functional, cell-based; details: SW 1116, 24 h
K562 [19] = assay: Cytotoxicity against human K562 cells assessed as reduction in cell viability incubated for 24 hrs by MTT assay; format: functional, cell-based; details: K562, 24 h
SF-268 = assay: Cytotoxicity against human SF-268 cells assessed as reduction in cell viability by MTS assay; format: functional, cell-based
MCF7 [20] = assay: Cytotoxicity against human MCF7 cells assessed as reduction in cell viability by MTS assay; format: functional, cell-based
NCI-H460 = assay: Cytotoxicity against human NCI-H460 cells assessed as reduction in cell viability by MTS assay; format: functional, cell-based
A549 [21] = assay: Antiproliferative activity against human A549 cells assessed as reduction in cell growth in presence of doxorubicin by CellTiter-Glo luminescent assay; format: functional, cell-based
HCT-116 [22] = assay: Cytotoxicity against human HCT-116 cells assessed as inhibition of cell growth by MTT based colorimetric analysis; format: functional
HepG2 [23] = assay: Cytotoxicity against human HepG2 cells assessed as inhibition of cell growth by MTT based colorimetric analysis; format: functional
HL-60 = assay: Antiproliferative activity against human HL-60 cells assessed as reduction in cell viability incubated for 72 hrs by MTT assay; format: functional, cell-based; details: HL-60, 72 h
A-375 [24] = assay: Cytotoxicity against human A-375 cells assessed as inhibition of cell growth by MTT based colorimetric analysis; format: functional
A-375 [25] = assay: Cytotoxicity against human A-375 cells assessed as reduction in cell growth by MTT based colorimetric assay; format: functional
A549 [26] = assay: Cytotoxicity against human A549 cells assessed as reduction in cell viability incubated for 24 hrs by MTT based colorimetric assay; format: functional; details: A549, 24 h
HepG2 [27] = assay: Cytotoxicity against human HepG2 cells assessed as reduction in cell growth by MTT based colorimetric assay; format: functional
HCT-116 [28] = assay: Cytotoxicity against human HCT-116 cells assessed as reduction in cell growth by MTT based colorimetric assay; format: functional

Structure (SMILES): C[C@H]1NC(=O)[C@@H](Cc2c[nH]c3ccccc23)n2c1nc1ccccc1c2=O [FUMIQUINAZOLINE G]
EC50 (P388): 17.7 µg/mL (≈ 49.4 µM)

Structure (SMILES): O=C1N[C@H]2c3[nH]c4ccccc4c3C[C@@H]1n1c2nc2ccccc2c1=O
IC50 (MCF7 [7]): 43 µM
IC50 (SK-MEL-28 [8]): 73 µM
IC50 (A549 [9]): 39 µM
IC50 (Hs 683): 50 µM
IC50 [10]: 50 µM

Structure (SMILES): C=CC(C)(C)[C@@]12C[C@H]3c4nc5ccccc5c(=O)n4[C@H](C)C(=O)N3[C@@H]1N(C(C)=O)c1ccccc12
IC50 (KB): 107 µM

Structure (SMILES): CN(C)CCc1ccc2nc3n(c(=O)c2c1)C1C=CC(F)=CC1C3=O (centres undefined)
IC50 [11]: 20 nM
IC50 [12]: 60 nM

Structure (SMILES): C[C@@]12NC(=O)[C@@H](CC13c1ccccc1N1C(=O)CN[C@@H]13)n1c2nc2ccccc2c1=O (some centres undefined)
IC50 (K562 [13]): 50 µM

Structure (SMILES): CO[C@@]1(C)NC(=O)[C@@H](C[C@]2(O)c3ccccc3N3C(=O)[C@H](C)N[C@@H]32)n2c1nc1ccccc1c2=O
EC50 (P388): 13.8 µg/mL (≈ 29 µM)

Structure (SMILES): CN1CCN(CCc2ccc3nc4n(c(=O)c3c2)C2C=CC(F)=CC2C4=O)CC1 (centres undefined)
IC50 [11]: 20 nM
IC50 [12]: 90 nM

Structure (SMILES): C[C@@H]1NC(=O)[C@@H](Cc2c[nH]c3ccccc23)n2c1nc1ccccc1c2=O [FUMIQUINAZOLINE F]
EC50 (P388): 14.6 µg/mL (≈ 40.7 µM)

Structure (SMILES): C[C@H]1C(=O)N2c3ccccc3[C@@]3(O)C[C@@H](n4cnc5ccccc5c4=O)C(=O)N1[C@@H]23
IC50 (SW 1116): 34 nM
IC50 (K562 [19]): 35 nM

Structure (SMILES): COC(=O)c1c2ccccc2n2c(=O)c3ccccc3[nH]c12 [PHAITANTHRIN E]
IC50 (SF-268): > 50 µM
IC50 (MCF7 [20]): > 50 µM
IC50 (NCI-H460): > 50 µM

Structure (SMILES): CC(C)C[C@H]1NC(=O)[C@@H](C[C@]2(O)c3ccccc3N3C(=O)C(C)(C)N[C@H]32)n2c1nc1ccccc1c2=O
IC50 (A549 [21]): 540 nM
IC50 (HCT-116 [22]): 86 µM
IC50 (HepG2 [23]): 24 µM
IC50 (HL-60): 52 µg/mL (≈ 104 µM)
IC50 (A-375 [24]): 75 µM

Structure (SMILES): CC(C)C[C@H]1NC(=O)[C@@H](C[C@]2(O)c3ccccc3N3C(=O)[C@@H](C)N[C@H]32)n2c1nc1ccccc1c2=O
IC50 (A-375 [25]): 160 µM
IC50 (A549 [26]): 540 nM
IC50 (HepG2 [27]): 76 µM
IC50 (HCT-116 [28]): 203 µM

More lines, main results first:

IC50 (MCF7 [1]): > 100 µM
IC50 (A549 [2]): > 100 µM
IC50 (HepG2 [5]): 235 µM
Structure (SMILES): CC1(C)C(=O)N2c3ccccc3[C@@]3(C[C@@H](n4cnc5ccccc5c4=O)C(=O)O3)[C@@H]2N1O
IC50 [3]: > 100 µM
IC50 (SK-MEL-28 [4]): > 100 µM

IC50 (MCF7 [1]): > 100 µM
IC50 (A549 [2]): > 100 µM
IC50 (HepG2 [5]): 235 µM
IC50 (HCT-116 [6]): 202 µM
Structure (SMILES): C[C@@H]1N[C@@H]2N(C1=O)c1ccccc1[C@@]21C[C@@H](n2cnc3ccccc3c2=O)C(=O)O1 [FUMITREMORGIN F]
IC50 [3]: 90 µM
IC50 (SK-MEL-28 [4]): > 100 µM

IC50 (A549 [14]): 540 nM
IC50 (MCF7 [1]): > 100 µM
IC50 (A549 [2]): > 100 µM
IC50 (HepG2 [5]): 235 µM
Structure (SMILES): C[C@H]1C(=O)N2c3ccccc3[C@@]3(C[C@@H](n4cnc5ccccc5c4=O)C(=O)O3)[C@@H]2N1O
IC50 [3]: > 100 µM
IC50 (SK-MEL-28 [4]): > 100 µM

IC50 (A549 [17]): 540 nM
Structure (SMILES): CC(C)[C@@H]1NC(=O)[C@@H](C[C@]2(O)c3ccccc3N3C(=O)[C@H](C)N[C@H]32)n2c1nc1ccccc1c2=O
IC50 (HCT-116 [15]): 123 µM
IC50 (A-375 [16]): 169 µM
IC50 (HepG2 [18]): 53 µM

IC50 (MCF7 [1]): 91 µM
IC50 (A549 [2]): > 100 µM
IC50 (HepG2 [5]): 235 µM
Structure (SMILES): CC1(C)C(=O)N2c3ccccc3[C@@]3(C[C@@H](n4cnc5ccccc5c4=O)C(=O)O3)[C@@H]2N1C=O
IC50 [3]: > 100 µM
IC50 (SK-MEL-28 [4]): > 100 µM

IC50 (MCF7 [1]): > 100 µM
IC50 (A549 [2]): > 100 µM
IC50 (HepG2 [5]): 235 µM
Structure (SMILES): O=C1O[C@]2(C[C@H]1n1cnc3ccccc3c1=O)C(=O)Nc1ccccc12
IC50 [3]: > 100 µM
IC50 (SK-MEL-28 [4]): > 100 µM
